Read-outs that look alike come from different tables or passages of the source.
What was measured:
[1] = tested on: Agrobacterium biosensor cells; assay: Minimal inhibitory concentration (MIC); assay type: cell-based, Agrobacterium tumefaciens; conditions: 10^5 CFU/ml, 36 h at 30°C
Procedure: Aside from the effect of QSI on QS regulation, the toxicity of these compounds was tested on bacterial cells by measuring two parameters: the minimal inhibitory concentration (MIC) and minimal bactericidal concentration (MBC). MIC, which is the lowest concentration of QSI (µg/ml) inhibiting any visible culture after 36 h of incubation at 30°C, was estimated by culturing 10^5 CFU/ml of the Agrobacterium biosensor cells in the presence of different concentrations of the QSI. MBC, which is the lowest concentration of QSI (µg/ml) that results in a 99.9% reduction of the initial bacterial population (10^5 CFU/ml) after 36 h of incubation at 30°C in the presence of different concentrations of QSI, was estimated by plating 100 µL of the Agrobacterium cultures on agar LBm plates. After an incubation of 48 h at 30°C, CFU were counted and the MBC values were calculated.

[2] = tested on: QS-regulated Ti-plasmid transfer in A. tumefaciens; assay: QS-regulated Ti-plasmid transfer (conjugation) assay; assay type: cell-based, Agrobacterium tumefaciens; conditions: QSI at 0.1 mg/ml, OC8-HSL 500 pM, 72 h at 24°C
Procedure: Figure 4 In vitro Ti plasmid transfer frequency in Agrobacterium. The Ti plasmid transfer frequencies were measured in the presence of QSI (A) and the four 1248-diastereoisomeres (B) at 0.1 mg/ml. Histograms represent the cell density of transconjugants (CFU/ml), while black diamonds and squares, those of the donor and recipient strains, respectively. Measurements were performed in quadruplicate and the experiment was repeated twice. The cell densities of transconjugants in the presence of QSI were compared to that of the control in the presence of DMSO with a Mann and Whitney test (α = 0.05). Statistically different values are noted by asterisks.
In A. tumefaciens, the transfer of the Ti-plasmid from a donor cell to a recipient one is controlled by QS. QSI were evaluated for their capacity to reduce plasmid transfer frequency in Agrobacterium. In the plasmid transfer assay, two modified Agrobacterium strains were used: a Ti-plasmid donor, which requires exogenous AHL to transfer a kanamycin-resistant (Km^r) Ti-plasmid, and a rifampicin-resistant (Rif^r) recipient strain, which is free of Ti-plasmid. Overnight cultures of the donor and recipient strains were mixed with 500 pM of oxo-octanoylhomoserine lactone (OC8-HSL) and 0.1 mg/ml of QSI in LBm medium. Each combination was repeated 4 times in microwell plates.

[3] = tested on: P. aeruginosa; assay: Growth kinetics of P. aeruginosa in the presence of QSIs; assay type: cell-based, Pseudomonas aeruginosa; conditions: QSI at 0.5 mg/ml, OD600 and CFU at 8 and 18 hour
Procedure: (§1) Figure 5 QSIs modulated QS-signal accumulation in P. aeruginosa. Growth kinetics (n = 6) of P. aeruginosa was measured (OD600) in the presence of the QSIs (estradiol, estrone, estriol, hordenine and 4-NPO) at 0.5 mg/ml using DMSO as a negative control. Cell counts were assessed (CFU/ml) at 8- and 18-hour, and C4-HSL and OC12-HSL concentration (µM) were determined in the bacterial cultures at 18-hour. Statistically different values (Student's t test with α = 0.01) are noted by asterisks.
(§2) QS gene transcription in P. aeruginosa PAO1 was monitored using PAO1 strains carrying various gene promoters fused to a lacZ reporter gene, as described in Vandeputte et al., 2010 and Table 1. PAO1 reporter strains were prepared according to Vandeputte et al.. Briefly, 18-hours-old liquid cultures (50 µl) were diluted in order to obtain a starting OD600 nm comprised between 0.02 and 0.03 in fresh LB medium supplemented with 50 mM MOPS pH 7.0 (1 ml), carbenicillin (300 µg/ml) and 10 µl of the QSIs to be tested (OD were measured using a SpectraMax M2 device from Molecular Devices). Test and control QSIs were diluted in 100% DMSO (resulting after addition to the growth medium in a 1% final concentration of DMSO). Cultures were incubated for 18 hours at 37°C with agitation. After incubation, cell densities were assessed spectrophotometrically (OD600 nm) and β-galactosidase assays were performed using the substrate o-nitrophenyl-β-D-galactopyranoside as described previously, [29]. Promoterless-lacZ fusions were used as controls. AHLs were quantified as described in Vandeputte et al.. All tests were performed in quintuplicates and three biological repetitions. The statistical significance of each test was evaluated by conducting Student's t tests and two-way ANOVA combined with the Tukey post-analysis test using the GraphPad Prism software and p values≤0.01 were considered significant.

[4] = tested on: QS-signal accumulation in P. aeruginosa; assay: AHL (C4-HSL, OC12-HSL) quantification in P. aeruginosa cultures by mass spectrometry; assay type: cell-based, Pseudomonas aeruginosa; conditions: QSI at 0.5 mg/ml, 18-hour
Procedure: as §1, §2

[5] = tested on: QS-regulated genes lasI, lasR, lasB, rhlI, rhlR, rhlA in P. aeruginosa PAO1; assay: QS-regulated gene expression, lacZ transcriptional fusions in PAO1; assay type: cell-based, Pseudomonas aeruginosa; conditions: for expression of six QS-regulated genes (lasI, lasR, lasB, rhlI, rhlR, rhlA): QSI at 0.5 mg/ml, 18 hours at 37°C, β-galactosidase; for inhibition of expression of the regulators lasR and rhlR (rank) / impact on rhlI expression relative to naringenin, estradiol and estrone: QSIs at 0.5 mg/ml; for impact on rhlI expression relative to naringenin, estradiol and estrone: naringenin at 1 mg/ml
Procedure: Figure 6 QSIs modulated QS-regulated genes in P. aeruginosa. The β-galactosidase (b-Gal) activity in Miller unit (MU) of the transcriptional fusions lasI-lacZ (A), lasR-lacZ (B), lasB-lacZ (C), rhlI-lacZ (D), rhlR-lacZ (E), rhlA-lacZ (F), and aecA-lacZ(G) were measured in the presence of estradiol, estrone, estriol, hordenine at 0.5 mg/ml, and naringenin at 1 mg/ml as a positive control and DMSO as a negative control. The statistical significance of each test (n = 5 and three biological replicates) was evaluated by Student's t test (i.e. each test was compared with the DMSO condition). Asterisks indicate statistically different data (p value of ≤0.01).
as §2

Molecule | MIC ([1]; Agrobacterium, read-out: MIC) | effect on Ti plasmid transfer frequency (words) [2] | effect on growth of P. aeruginosa [3] | C4-HSL concentration in cell cultures [4] | OC12-HSL concentration in cell cultures [4] | expression of six QS-regulated genes (lasI, lasR, lasB, rhlI, rhlR, rhlA) [5] | inhibition of expression of the regulators lasR and rhlR (rank) [5] | impact on rhlI expression relative to naringenin, estradiol and estrone [5] | effect on Ti plasmid transfer frequency (words) ([2]; listed as hordenine) | MIC [1] | effect on Ti plasmid transfer frequency (words) ([2]; listed as estrone)
C[C@]12CC[C@@H]3c4ccc(O)cc4CC[C@H]3[C@@H]1C[C@@H](O)[C@@H]2O [Estriol, estriol] | > 100 µg/mL | significantly reduce the plasmid transfer frequency by one order of magnitude | did not affect the growth | reduction | reduction | decreased | the least | lower impact | – | – | –
CN(C)CCc1ccc(O)cc1 [Compound 3499, hordenine] | > 100 µg/mL | significantly reduce the plasmid transfer frequency by one order of magnitude | slightly delayed the growth | reduction | reduction | decreased | the most | lower impact | decreased the frequency | – | –
3-Hydroxy-13-methyl-6,7,8,9,11,12,13,14,15,17-decahydro-cyclopenta[a] phenanthren-16-one [Compound 729, reference compound] | – | significantly reduce the plasmid transfer frequency by one order of magnitude | did not affect the growth | reduction | reduction | decreased | – | – | – | >100 µg/mL | decreased the frequency
